Legend:
[1] = test system: PR cellular signaling pathway; experiment: PR pathway activity inferred by Bayesian network models, PR-B expressing hMEC breast cell line (GSE24468); format: cell-based; conditions: PR-A, PR-B and PR-A&B models; 10 nM, 16h; versus control treated samples
Text: (§1) Herein, an exemplary Bayesian network model as shown in FIG. 1 was used to model the transcriptional program of the PR cellular signaling pathway in a simple manner. The model consists of three types of nodes: (a) a transcription factor (TF) element (with states “absent” and “present”) in a first layer 1; (b) target genes TG1, TG2, TGn (with states “down” and “up”) in a second layer 2, and; (c) measurement nodes linked to the expression levels of the target genes in a third layer 3. These can be microarray probesets PS1,1, PS1,2, PS1,3, PS2,1, PSn,1, PSn,m (with states “low” and “high”), as preferably used herein, but could also be other gene expression measurements such as RNAseq or RT-qPCR.
(§2) Once the exemplary Bayesian network model is built and calibrated (see below), the model can be used on microarray data of a new sample by entering the probeset measurements as observations in the third layer 3, and inferring backwards in the model what the probability must have been for the TF element to be “present”. Here, “present” is considered to be the phenomenon that the TF element is bound to the DNA and is controlling transcription of the cellular signaling pathway's target genes, and “absent” the case that the TF element is not controlling transcription.
(§3) The models are identified by their target gene list and calibration set. […]

[2] = test system: tumor growth in xenograft models; conditions: cited from earlier work
[3] = test system: PR cellular signaling pathway; experiment: PR pathway activity inferred by Bayesian network models, ishikawa IKPR-AB36 endometrium cell line (GSE29435); format: cell-based; conditions: PR-A, PR-B and PR-A&B models; 1 nM, 48h; versus control treated samples
Text: as §1, §2, §3

[4] = test system: PR-B cellular signaling pathway; experiment: PR-B pathway activity in paired pre/post letrozole treatment breast cancer samples (GSE10281); format: in vivo, human; conditions: ER positive breast cancer patients, 3 months neoadjuvant treatment
Text: as §1, §2, §3

SMILES: CCC(=O)[C@@]1(C)CC[C@H]2[C@@H]3CCC4=CC(=O)CCC4=C3CC[C@@]21C [R5020, promegestone]
- PR cellular signaling pathway activity levels [1]: significantly higher

SMILES: CC(=O)[C@H]1CC[C@H]2[C@@H]3CCC4=CC(=O)CC[C@]4(C)[C@H]3CC[C@]12C [progesterone, Progesterone]
- Effect over tamoxifen regarding controlling tumor growth [2]: additive effect

SMILES: CC(=O)O[C@]1(C(C)=O)CC[C@H]2[C@@H]3C[C@H](C)C4=CC(=O)CC[C@]4(C)[C@H]3CC[C@@]21C [MPA, medroxyprogesterone acetate]
- PR cellular signaling pathway activity levels (odds PR on:off) [3]: significantly higher

SMILES: N#Cc1ccc(C(c2ccc(C#N)cc2)n2cncn2)cc1 [letrozole]
- Normalized PR-B cellular signaling pathway activity levels, post vs. pre treatment ([4]; non-responders): remain similar to pre-treatment
- Mean normalized PR-B cellular signaling pathway activity, post vs. pre treatment ([4]; responders): goes up

Reference: patent US20230071390A1, “ASSESSMENT OF PR CELLULAR SIGNALING PATHWAY ACTIVITY USING MATHEMATICAL MODELLING OF TARGET GENE EXPRESSION” (InnoSIGN B.V., priority 2019, published 2023)
